Reference: patent US11524944B2, “2-phenylpyrimidine-4-carboxamides as AHR inhibitors” (Bayer Aktiengesellschaft, priority 2017, dated 2022)
pIC50: −log10 of the molar value.

Target: T1, Human AhR (Homo sapiens, UniProt P35869)
T1 construct: host or cells: U87 glioblastoma cells, stably transfected with a DRE firefly luciferase reporter and a constitutive renilla reporter
T1 sequence (P35869 11-848): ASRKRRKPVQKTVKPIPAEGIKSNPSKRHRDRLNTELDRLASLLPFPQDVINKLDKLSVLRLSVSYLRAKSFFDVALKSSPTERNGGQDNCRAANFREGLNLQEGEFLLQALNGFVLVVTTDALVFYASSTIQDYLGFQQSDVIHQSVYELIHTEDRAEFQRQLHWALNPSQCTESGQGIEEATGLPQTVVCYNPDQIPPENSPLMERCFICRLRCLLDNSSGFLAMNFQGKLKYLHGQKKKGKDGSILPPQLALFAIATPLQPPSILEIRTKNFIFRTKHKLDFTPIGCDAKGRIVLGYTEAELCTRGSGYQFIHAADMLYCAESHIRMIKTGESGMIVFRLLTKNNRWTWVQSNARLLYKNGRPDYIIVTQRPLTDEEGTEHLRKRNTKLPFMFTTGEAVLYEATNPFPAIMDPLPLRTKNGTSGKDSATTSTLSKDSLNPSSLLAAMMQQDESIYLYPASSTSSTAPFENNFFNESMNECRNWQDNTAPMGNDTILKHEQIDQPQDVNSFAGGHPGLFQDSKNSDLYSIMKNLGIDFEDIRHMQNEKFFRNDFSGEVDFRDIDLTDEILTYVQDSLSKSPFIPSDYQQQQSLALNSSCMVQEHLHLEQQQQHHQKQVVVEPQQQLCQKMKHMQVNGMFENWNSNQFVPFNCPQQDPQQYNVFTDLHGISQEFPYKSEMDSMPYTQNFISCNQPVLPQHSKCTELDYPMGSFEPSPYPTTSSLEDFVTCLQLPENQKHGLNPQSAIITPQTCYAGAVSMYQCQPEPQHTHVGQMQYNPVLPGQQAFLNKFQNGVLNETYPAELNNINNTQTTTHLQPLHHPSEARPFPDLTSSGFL
Experiment: Transactivation assay in human cell line (in vitro assay 1): antagonism
Type: cell-based
Conditions: U87 glioblastoma cells, AHR inducible firefly luciferase reporter (DRE), 150 μM kynurenic acid, 20 hours
Experimental: Examples were tested in selected biological assays one or more times. When tested more than once, data are reported as either average values or as median values, wherein • the average value, also referred to as the arithmetic mean value, represents the sum of the values obtained divided by the number of times tested, and • the median value represents the middle number of the group of values when ranked in ascending or descending order. If the number of values in the data set is odd, the median is the middle value. If the number of values in the data set is even, the median is the arithmetic mean of the two middle values.
Transactivation Assay in Human Cell Line (In Vitro Assay 1)
Transactivation assay was carried out in U87 glioblastoma cells (ATCC) endogenously expressing AHR. In addition the cells were stably transfected with an AHR inducible firefly luciferase reporter gene construct that carried AHR-binding sites (DRE) in its promoter and a renilla reporter gene construct with constitutively active promoter. Kynurenic acid is an endogenous AHR activating ligand and was used to prestimulate test cells prior to testing the antagonistic properties of compounds.
In Vitro Assay 1: Antagonism in Human Cell Line
Firefly luciferase and Renilla activity was determined by the DualGlo Luciferase Assay System (Promega, #2920). Renilla activity was used to assess toxic effects of compounds.

Row | pIC50 | SMILES
1 | < 4.70 | CC(C)(O)CNC(=O)c1cc(-c2ccc(Cl)cc2)nc(-c2cccc(F)c2)n1 [Example 1, 6-(4-Chlorophenyl)-2-(3-fluorophenyl)-N-(2-hydroxy-2-methylpropyl)pyrimidine-4-carboxamide]
2 | 7.59 | CC(C)(O)CNC(=O)c1cc(-c2ccc(OC(F)(F)F)cc2)nc(-c2ccc(F)cc2)n1 [Example 13, 2-(4-fluorophenyl)-N-(2-hydroxy-2-methylpropyl)-6-[4-(trifluoromethoxy)phenyl]pyrimidine-4-carboxamide]
3 | < 4.70 | CC(C)(O)CNC(=O)c1cc(-c2ccc(OC(F)(F)F)cc2)nc(-c2ccc(C(F)F)cc2)n1 [Example 25, 2-[4-(difluoromethyl)phenyl]-N-(2-hydroxy-2-methylpropyl)-6-[4-(trifluoromethoxy)phenyl]pyrimidine-4-carboxamide]
4 | 7.40 | CC(C)(O)CNC(=O)c1cc(-c2ccc(OC(F)(F)F)cc2)nc(-c2cc(F)cc(C#N)c2)n1 [Example 26, 2-(3-cyano-5-fluorophenyl)-N-(2-hydroxy-2-methylpropyl)-6-[4-(trifluoromethoxy)phenyl]pyrimidine-4-carboxamide]
5 | 6.14 | COc1ccc(-c2nc(C(=O)N[C@@H](C)CO)cc(-c3ccc(OC(F)(F)F)cc3)n2)cc1 [Example 30, N-[(2S)-1-hydroxypropan-2-yl]-2-(4-methoxyphenyl)-6-[4-(trifluoromethoxy)phenyl]pyrimidine-4-carboxamide]
6 | 6.77 | C[C@@H](CO)NC(=O)c1cc(-c2ccc(OC(F)(F)F)cc2)nc(-c2cc(Cl)cc(Cl)c2)n1 [Example 34, 2-(3,5-dichlorophenyl)-N-[(2S)-1-hydroxypropan-2-yl]-6-[4-(trifluoromethoxy)phenyl]pyrimidine-4-carboxamide]
7 | 7.11 | C[C@@H](CO)NC(=O)c1cc(-c2ccc(OC(F)(F)F)cc2)nc(-c2ccc(F)c(C#N)c2)n1 [Example 35, 2-(3-cyano-4-fluorophenyl)-N-[(2S)-1-hydroxypropan-2-yl]-6-[4-(trifluoromethoxy)phenyl]pyrimidine-4-carboxamide]
8 | 5.36 | C[C@@H](CO)NC(=O)c1cc(-c2ccc(OC(F)(F)F)cc2)nc(-c2ccc(Cl)c(Cl)c2)n1 [Example 38, 2-(3,4-dichlorophenyl)-N-[(2S)-1-hydroxypropan-2-yl]-6-[4-(trifluoromethoxy)phenyl]pyrimidine-4-carboxamide]
9 | 7.67 | C[C@@H](CO)NC(=O)c1cc(-c2ccc(OC(F)(F)F)cc2)nc(-c2cc(F)cc(C#N)c2)n1 [Example 43, 2-(3-cyano-5-fluorophenyl)-N-[(2S)-1-hydroxypropan-2-yl]-6-[4-(trifluoromethoxy)phenyl]pyrimidine-4-carboxamide]
10 | < 4.70 | CC(C)(O)CNC(=O)c1cc(-c2ccc(Cl)cc2)nc(-c2ccc(Br)cc2)n1 [Example 44, 2-(4-bromophenyl)-6-(4-chlorophenyl)-N-(2-hydroxy-2-methylpropyl)pyrimidine-4-carboxamide]
11 | 5.01 | CC(C)(O)CNC(=O)c1cc(-c2ccc(Cl)cc2)nc(-c2ccc(Cl)cc2)n1 [Example 46, 2,6-bis(4-chlorophenyl)-N-(2-hydroxy-2-methylpropyl)pyrimidine-4-carboxamide]
12 | 5.65 | COc1ccc(-c2nc(C(=O)NCC(C)(C)O)cc(-c3ccc(Cl)cc3)n2)cc1 [Example 47, 6-(4-chlorophenyl)-N-(2-hydroxy-2-methylpropyl)-2-(4-methoxyphenyl)pyrimidine-4-carboxamide]
13 | 6.95 | CC(C)(O)CNC(=O)c1cc(-c2ccc(Cl)cc2)nc(-c2ccc(F)c(C#N)c2)n1 [Example 52, 6-(4-chlorophenyl)-2-(3-cyano-4-fluorophenyl)-N-(2-hydroxy-2-methylpropyl)pyrimidine-4-carboxamide]
14 | 7.11 | CC(C)(O)CNC(=O)c1cc(-c2ccc(Cl)cc2)nc(-c2cc(F)cc(C(F)(F)F)c2)n1 [Example 58, 6-(4-chlorophenyl)-2-[3-fluoro-5-(trifluoromethyl)phenyl]-N-(2-hydroxy-2-methylpropyl)pyrimidine-4-carboxamide]
15 | 7.24 | CC(C)(O)CNC(=O)c1cc(-c2ccc(Cl)cc2)nc(-c2cc(F)cc(C#N)c2)n1 [Example 62, 6-(4-chlorophenyl)-2-(3-cyano-5-fluorophenyl)-N-(2-hydroxy-2-methylpropyl)pyrimidine-4-carboxamide]
16 | 7.00 | C[C@@H](CO)NC(=O)c1cc(-c2ccc(Cl)cc2)nc(-c2cc(Cl)cc(Cl)c2)n1 [Example 67, 6-(4-chlorophenyl)-2-(3,5-dichlorophenyl)-N-[(2S)-1-hydroxypropan-2-yl]pyrimidine-4-carboxamide]
17 | 6.99 | C[C@@H](CO)NC(=O)c1cc(-c2ccc(Cl)cc2)nc(-c2ccc(F)c(C#N)c2)n1 [Example 68, 6-(4-chlorophenyl)-2-(3-cyano-4-fluorophenyl)-N-[(2S)-1-hydroxypropan-2-yl]pyrimidine-4-carboxamide]
18 | 6.44 | C[C@@H](CO)NC(=O)c1cc(-c2ccc(Cl)cc2)nc(-c2ccc(Cl)c(Cl)c2)n1 [Example 72, 6-(4-chlorophenyl)-2-(3,4-dichlorophenyl)-N-[(2S)-1-hydroxypropan-2-yl]pyrimidine-4-carboxamide]
19 | 5.01 | C[C@@H](CO)NC(=O)c1cc(-c2ccc(Cl)cc2)nc(-c2ccc(OC(F)(F)F)cc2)n1 [Example 73, 6-(4-chlorophenyl)-N-[(2S)-1-hydroxypropan-2-yl]-2-[4-(trifluoromethoxy)phenyl]pyrimidine-4-carboxamide]
20 | 7.01 | C[C@@H](CO)NC(=O)c1cc(-c2ccc(Cl)cc2)nc(-c2cc(F)cc(C(F)(F)F)c2)n1 [Example 75, 6-(4-chlorophenyl)-2-[3-fluoro-5-(trifluoromethyl)phenyl]-N-[(2S)-1-hydroxypropan-2-yl]pyrimidine-4-carboxamide]
21 | 7.58 | Cc1cc(F)cc(-c2nc(C(=O)N[C@@H](C)CO)cc(-c3ccc(Cl)cc3)n2)c1 [Example 77, 6-(4-chlorophenyl)-2-(3-fluoro-5-methylphenyl)-N-[(2S)-1-hydroxypropan-2-yl]pyrimidine-4-carboxamide]
22 | < 4.70 | CC(O)C(NC(=O)c1cc(-c2ccc(OC(F)(F)F)cc2)nc(-c2cccc(F)c2)n1)C(F)(F)F (stereo not shown) [Example 91, 2-(3-fluorophenyl)-N-(1,1,1-trifluoro-3-hydroxybutan-2-yl)-6-[4-(trifluoromethoxy)phenyl]pyrimidine-4-carboxamide]
